In PubChem BioAssay AID1963978 (Molecular Pharmacology Branch, DTP, NCI, 2024):
Where “and” joins values, the source holds several entries; their conditions need not be identical. Identical values can stand only once.

Test system: 616215-338-R-J1-PDC spheroids with HUVEC/MSC, viability
Experiment: Anticancer human tumor 616215-338-R-J1-PDC patient-derived colon adenocarcinoma cell line growth inhibition [PI3K]
Conditions: for viability, T/C: stronger effect = lower value
From the text: Combinatorial screen of targeted agents with the PI3K inhibitors inavolisib, alpelisib, duvelisib, and copanlisib in multi-cell type tumor spheroids
A high-throughput screen of multi-cell type tumor spheroids was designed to identify active combinations of targeted small molecules and PI3K pathway inhibitors. Complex spheroids include a stromal component modeled by human endothelial cells (HUVEC) and fibroblasts modeled by human mesenchymal stem cells (MSCs). The concentration ranges selected for each drug and investigational agent were based upon clinically achievable concentrations if the clinical Cmax of the agent was known.
Compounds. The drugs and investigational agents: inavolisib (NSC800729), alpelisib (NSC765974), duvelisib (NSC772469), copanlisib (NSC816437), ipatasertib (NSC767898), afuresertib (NSC778305), talazoparib (NSC767125), sapanisertib (NSC764658), selumetinib (NSC741078), tovorafenib (DAY101, NSC766906), vemurafenib (NSC761431), ravoxertinib (NSC781343), sotorasib (NSC818433), MRTX1133 (NSC 836407), abemaciclib (NSC 768073), palbociclib (NSC758247), venetoclax (NSC 766270), SY5609 (NSC837396), enzalutamide (NSC755605), and darolutamide (NSC825331), were obtained from the National Cancer Institute (NCI) Developmental Therapeutics Program Chemical Repository. The FDA-approved anticancer drug set is available from the NCI Developmental Therapeutics Program. […] The stock solutions were prepared in dimethyl sulfoxide (DMSO, Sigma-Aldrich, St. Louis, MO, cat. D2650) at 800-fold the tested concentration and stored at -70 degrees C prior to their use. All drugs and investigational agents were tested over a range starting from a high concentration at or near the clinical Cmax and decreasing in half-log increments. If the clinical Cmax for an agent had not been determined, the highest concentration tested was 10 microM.
Cell Culture. All cells were maintained in an incubator at 37 degrees C and 5% CO2 with 95% humidity. The PDC lines were cultured according to standard operating procedures established by the NCI PDMR (https://pdmr.cancer.gov/sops/default.htm). All PDCs were thawed and cultured in Matrigel-coated flasks prepared with a working solution of 1X Ham's F-12 nutrient mix, without supplementation (Invitrogen, Waltham, MA, cat. 11765054), 100 U/mL penicillin-streptomycin (Invitrogen, cat. 15140122), and 2.5% Matrigel (Corning Inc., Corning, NY, cat. 354248) for the first three passages. The 354836-022-R-J1-PDC, 475296-252-R-J1-PDC, and 997726-040-R-J2-PDC lines were cultured in 6A media, which includes advanced DMEM/F-12 (Thermo Fisher Scientific, cat. 12634028), 10 mM HEPES (Thermo Fisher Scientific, cat. 15630080), 1X GlutaMAX supplement (Thermo Fisher Scientific, cat. 35050061), 0.1 mg/mL primocin (InvivoGen, San Diego, CA, cat. ant-pm-2), 10% defined fetal bovine serum, heat inactivated (HyClone Laboratories Inc., Logan, UT, cat. SH30070.03HI), 50% L-WRN conditioned media (ATCC, cat. CRL-3276), 1.25 mM N-Acetyl-L-cysteine (Sigma-Aldrich, cat. A9165), 10 mM nicotinamide (Sigma-Aldrich, cat. N0636), 1X B-27 supplement (Thermo Fisher Scientific, cat. 17504044), 1X N-2 supplement (Thermo Fisher Scientific, cat. 17502048), and 10 microM Y-27632 dihydrochloride (Tocris Bioscience, Bristol, United Kingdom, cat. 1254). The 624824-186-R-J2-PDC line was cultured in 6C/Colon 1B media, which includes all 6A media components plus 50 ng/mL human EGF recombinant protein (Thermo Fisher Scientific, cat. PHG0311). […]
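Further: spheroids exposed to agents for seven days before the viability read.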

`CC1(C)CCC(Nc2ncc(C(F)(F)F)c(-c3c[nH]c4c(P(C)(C)=O)c(C#N)ccc34)n2)CN1` (centres undefined) + Cc1nc(NC(=O)N2CCCC2C(N)=O)sc1-c1ccnc(C(C)(C)C(F)(F)F)c1 was tested, and the IC50 (curve of first compound, second compound 0.0316 µM) was 3.65 µM, the IC50 (curve of first compound, second compound 0.1 µM) was 3.77 µM and the IC50 (curve of first compound, second compound 0.316 µM) was 3.66 µM. The IC50 (curve of first compound, second compound 1 µM) was 3.35 µM, the IC50 (curve of first compound, second compound 3.16 µM) was 1.1 µM and the IC50 (curve of first compound, second compound 10 µM) was 0.185 µM. It also gave a viability, T/C (second compound 0.0316 µM, first compound 0.0316 µM) of 50.7%, a viability, T/C (second compound 0.0316 µM, first compound 0.1 µM) of 54.1% and a viability, T/C (second compound 0.0316 µM, first compound 0.316 µM) of 54.7%. It also gave a viability, T/C (second compound 0.0316 µM, first compound 1 µM) of 56.1%, a viability, T/C (second compound 0.0316 µM, first compound 3.16 µM) of 69.7% and a viability, T/C (second compound 0.0316 µM, first compound 10 µM) of 0.38%. It also gave a viability, T/C (second compound 0.1 µM, first compound 0.0316 µM) of 64.5%, a viability, T/C (second compound 0.1 µM, first compound 0.1 µM) of 52% and a viability, T/C (second compound 0.1 µM, first compound 0.316 µM) of 59.5%. The viability, T/C (second compound 0.1 µM, first compound 1 µM) was 60%, the viability, T/C (second compound 0.1 µM, first compound 3.16 µM) was 59.7% and the viability, T/C (second compound 0.1 µM, first compound 10 µM) was 0.38%. The viability, T/C (second compound 0.316 µM, first compound 0.0316 µM) was 51.8%, the viability, T/C (second compound 0.316 µM, first compound 0.1 µM) was 57.8% and the viability, T/C (second compound 0.316 µM, first compound 0.316 µM) was 59.7%. It also gave a viability, T/C (second compound 0.316 µM, first compound 1 µM) of 52.8%, a viability, T/C (second compound 0.316 µM, first compound 3.16 µM) of 63.6% and a viability, T/C (second compound 0.316 µM, first compound 10 µM) of 0.32%. It also gave a viability, T/C (second compound 1 µM, first compound 0.0316 µM) of 61.9%, a viability, T/C (second compound 1 µM, first compound 0.1 µM) of 45.8% and a viability, T/C (second compound 1 µM, first compound 0.316 µM) of 53.7%. The viability, T/C (second compound 1 µM, first compound 1 µM) was 55.8%, the viability, T/C (second compound 1 µM, first compound 3.16 µM) was 52.5% and the viability, T/C (second compound 1 µM, first compound 10 µM) was 0.18%. For the same molecule, the viability, T/C (second compound 3.16 µM, first compound 0.0316 µM) was 53.5%, the viability, T/C (second compound 3.16 µM, first compound 0.1 µM) was 47.5% and the viability, T/C (second compound 3.16 µM, first compound 0.316 µM) was 48.3%. For the same molecule, the viability, T/C (second compound 3.16 µM, first compound 1 µM) was 57.6%, the viability, T/C (second compound 3.16 µM, first compound 3.16 µM) was 31.2% and the viability, T/C (second compound 3.16 µM, first compound 10 µM) was 0.39%. The viability, T/C (second compound 10 µM, first compound 0.0316 µM) was 61.6%, the viability, T/C (second compound 10 µM, first compound 0.1 µM) was 51.4% and the viability, T/C (second compound 10 µM, first compound 0.316 µM) was 46.2%. The viability, T/C (second compound 10 µM, first compound 1 µM) was 37.1%, the viability, T/C (second compound 10 µM, first compound 3.16 µM) was 20.2% and the viability, T/C (second compound 10 µM, first compound 10 µM) was 0.89%.
For `CNC(=O)c1ccc(N2C(=S)N(c3ccc(C#N)c(C(F)(F)F)c3)C(=O)C2(C)C)cc1F`, the viability, T/C (compound 0.0316 µM) was 100% [middle of 4 runs], the viability, T/C (compound 0.1 µM) was 102% [middle of 4 runs] and the viability, T/C (compound 0.316 µM) was 100% [middle of 4 runs]. The viability, T/C (compound 1 µM) was 93.9% and 100% and 102%, the viability, T/C (compound 3.16 µM) was 101% [middle of 4 runs] and the viability, T/C (compound 10 µM) was 104% [middle of 4 runs]. It also gave an IC50 (curve of compound) greater than 10 µM.
With `Cn1ncnc1[C@H]1c2n[nH]c(=O)c3cc(F)cc(c23)N[C@@H]1c1ccc(F)cc1` the viability, T/C (compound 0.000316 µM) was 95% [middle of 4 runs], the viability, T/C (compound 0.001 µM) was 97.2% [middle of 4 runs] and the viability, T/C (compound 0.00316 µM) was 100% [middle of 4 runs]. For the same molecule, the viability, T/C (compound 0.01 µM) was 102% [middle of 4 runs], the viability, T/C (compound 0.0316 µM) was 102% [middle of 4 runs] and the viability, T/C (compound 0.1 µM) was 94.5% [middle of 4 runs]. It also gave an IC50 (curve of compound) greater than 0.1 µM.
In the case of `CC(=O)c1c(C)c2cnc(Nc3ccc(N4CCNCC4)cn3)nc2n(C2CCCC2)c1=O`, the viability, T/C (compound 0.000316 µM) is reported as 96.5% [middle of 4 runs], the viability, T/C (compound 0.001 µM) is reported as 98.8% [middle of 4 runs] and the viability, T/C (compound 0.00316 µM) is reported as 98.5% [middle of 4 runs]. The viability, T/C (compound 0.01 µM) was 112% [middle of 4 runs], the viability, T/C (compound 0.0316 µM) was 97.5% [middle of 4 runs] and the viability, T/C (compound 0.1 µM) was 115% [middle of 4 runs]. It also gave an IC50 (curve of compound) greater than 0.1 µM.
In the case of `C=CC(=O)N1CCN(c2nc(=O)n(-c3c(C)ccnc3C(C)C)c3nc(-c4c(O)cccc4F)c(F)cc23)C(C)C1` (centres undefined), the viability, T/C (compound 0.0316 µM) is reported as 96.2% [middle of 4 runs], the viability, T/C (compound 0.1 µM) is reported as 92% [middle of 4 runs] and the viability, T/C (compound 0.316 µM) is reported as 99% [middle of 4 runs]. The viability, T/C (compound 1 µM) was 99.8% [middle of 4 runs], the viability, T/C (compound 3.16 µM) was 93% [middle of 4 runs] and the IC50 (curve of compound) was greater than 10 µM.
In the case of `CC(Cn1ccc(-c2ccc(C#N)c(Cl)c2)n1)NC(=O)c1cc(C(C)O)[nH]n1` (centres undefined), the viability, T/C (compound 0.0316 µM) is reported as 99.3% [middle of 4 runs], the viability, T/C (compound 0.316 µM) is reported as 97.2% [middle of 4 runs] and the viability, T/C (compound 1 µM) is reported as 101% [middle of 4 runs]. The viability, T/C (compound 10 µM) was 101% [middle of 4 runs] and the IC50 (curve of compound) was greater than 10 µM.
